According to US20240252454A1, “COMPOSITION COMPRISING AN INHIBITOR OF MITOCHONDRIAL TRANSCRIPTION” (LEAD DISCOVERY CENTER GMBH, priority 2021, published 2024):

Legend:
Format in all cases: cell-based
[1] = system: BXPC3; experiment: SRB assay, IMT combined with inhibitor; conditions: BXPC3 (pancreas); concentration series of the labelled inhibitor + fixed concentration of IMT (3S)-1-[(2R)-2-[4-(2-chloro-4-fluoro-phenyl)-2-oxo-chromen-7-yl]oxypropanoyl]piperidine-3-carboxylic acid (Table 3: 40 nM, 120 h); negative=synergistic, positive=antagonistic
In short: (§1)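 Cells are grown at near-physiological glucose (5 mM) and given a dilution series of a MAPK signalling pathway SOC plus 40 nM (3S)-1-[(2R)-2-[4-(2-chloro-4-fluoro-phenyl)-2-oxo-chromen-7-yl]oxypropanoyl]piperidine-3-carboxylic acid held constant. After 120 h, biomass is quantified with sulforhodamine B.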

[2] = system: KASUMI-1; experiment: SRB assay, IMT combined with inhibitor; conditions: KASUMI-1 (hematological); concentration series of the labelled inhibitor + fixed concentration of IMT (3S)-1-[(2R)-2-[4-(2-chloro-4-fluoro-phenyl)-2-oxo-chromen-7-yl]oxypropanoyl]piperidine-3-carboxylic acid (Table 3: 40 nM, 120 h); negative=synergistic, positive=antagonistic
In short: as §1

[3] = system: MDAMB468; experiment: SRB assay, IMT combined with inhibitor; conditions: MDAMB468 (breast); concentration series of the labelled inhibitor + fixed concentration of IMT (3S)-1-[(2R)-2-[4-(2-chloro-4-fluoro-phenyl)-2-oxo-chromen-7-yl]oxypropanoyl]piperidine-3-carboxylic acid; negative=synergistic, positive=antagonistic
Procedure: (§2) Solforhodamine B assay is carried out as described in Voigt W. (2005) Sulforhodamine B Assay and Chemosensitivity. (Methods in Molecular Medicine™, vol 110. Humana Press. https://doi.org/10.1385/1-59259-869-2:039).
(§3) The determination of changes in cellular biomass was based on the Solforhodamine B assay format, carried out as described in Voigt W. (2005) Sulforhodamine B Assay and Chemosensitivity. (Methods in Molecular Medicine™, vol 110. Humana Press. https://doi.org/10.1385/1-59259-869-2:039).
(§4) All in vitro cell culture experiments were carried out under near physiological glucose concentrations (5 mM) in at least two independent replicates.
(§5) To establish the method described, combinations of (3S)-1-[(2R)-2-[4-(2-chloro-4-fluoro-phenyl)-2-oxo-chromen-7-yl]oxypropanoyl]piperidine-3-carboxylic acid and various PARPi were tested with regard to their effect on the cell growth of 33 tumour cell lines from different tissues, in the SRB and CTG assay format. The assay methods and protocols in cell culture and measurement followed the procedure as described in Example 1). […] This initial study was followed by validation experiments in a matrix format and in the CTG assay, as described for Example 1) (Table 6.)

[4] = system: A204; experiment: SRB assay, IMT combined with inhibitor; conditions: A204 (muscle); concentration series of the labelled inhibitor + fixed concentration of IMT (3S)-1-[(2R)-2-[4-(2-chloro-4-fluoro-phenyl)-2-oxo-chromen-7-yl]oxypropanoyl]piperidine-3-carboxylic acid; negative=synergistic, positive=antagonistic
Procedure: as §2, §3, §4, §5

[5] = system: ASPC1; experiment: SRB assay, IMT combined with inhibitor; conditions: ASPC1 (pancreas); concentration series of the labelled inhibitor + fixed concentration of IMT (3S)-1-[(2R)-2-[4-(2-chloro-4-fluoro-phenyl)-2-oxo-chromen-7-yl]oxypropanoyl]piperidine-3-carboxylic acid; negative=synergistic, positive=antagonistic
Procedure: as §2, §3, §4, §5

[6] = system: MCF7; experiment: SRB assay, IMT combined with inhibitor; conditions: MCF7 (breast); concentration series of the labelled inhibitor + fixed concentration of IMT (3S)-1-[(2R)-2-[4-(2-chloro-4-fluoro-phenyl)-2-oxo-chromen-7-yl]oxypropanoyl]piperidine-3-carboxylic acid; negative=synergistic, positive=antagonistic
Procedure: as §2, §3, §4, §5

[7] = system: 33 tumour cell lines from different tissues; experiment: SRB assay, panel of tumour cell lines; conditions: fixed concentration of IMT (3S)-1-[(2R)-2-[4-(2-chloro-4-fluoro-phenyl)-2-oxo-chromen-7-yl]oxypropanoyl]piperidine-3-carboxylic acid against concentration series of the labelled inhibitor
Procedure: as §2, §3, §4
as §5, with “6.) […]” for “6.)”

[8] = system: A2780; experiment: CellTiter-GLO (CTG) assay, combinatorial matrix

| SMILES | difference between the calculated combinatorial index (BLISS) and the observed combinatorial effect [1] | difference between the calculated combinatorial index (BLISS) and the observed combinatorial effect [2] | difference between the calculated combinatorial index (BLISS) and the observed combinatorial effect [3] | difference between the calculated combinatorial index (BLISS) and the observed combinatorial effect [4] | difference between the calculated combinatorial index (BLISS) and the observed combinatorial effect [5] | difference between the calculated combinatorial index (BLISS) and the observed combinatorial effect [6] | further results |
| --- | --- | --- | --- | --- | --- | --- | --- |
| CC(C)(C)c1nc(-c2cccc(NS(=O)(=O)c3c(F)cccc3F)c2F)c(-c2ccnc(N)n2)s1 [Dabrafenib] | 0.0251 | −0.0274 |  |  |  |  |  |
| CS(=O)(=O)N1CCN(Cc2cc3nc(-c4cccc5[nH]ncc45)nc(N4CCOCC4)c3s2)CC1 [GDC-0941, 2-(1H-Indazol-4-yl)-6-[[4-(methylsulfonyl)-1-piperazinyl]methyl]-4-(4-morpholinyl)thieno[3,2-d]pyrimidine] | 0.0704 | 0.0051 | −0.0509 | 0.3066 | 0.1003 | 0.0454 |  |
| CC(=O)Nc1cccc(-n2c(=O)n(C3CC3)c(=O)c3c(Nc4ccc(I)cc4F)n(C)c(=O)c(C)c32)c1 [Trametinib] | 0.0889 | −0.0377 |  |  |  |  |  |
| C[C@H](Nc1ncnc2nc[nH]c12)c1cc2cccc(Cl)c2c(=O)n1-c1ccccc1 [Duvelisib] | −0.0109 | −0.0237 | −0.0285 | −0.0217 | 0.0753 | 0.0256 |  |
| CC(C)Nc1cc(-c2c[nH]c(C(=O)N[C@H](CO)c3cccc(Cl)c3)c2)c(Cl)cn1 [Ulixertinib] | 0.0946 | 0.0068 |  |  |  |  |  |
| O=C(c1cc(Cc2n[nH]c(=O)c3ccccc23)ccc1F)N1CCN(C(=O)C2CC2)CC1 [Olaparib] | 0.0315 | −0.0415 | −0.0262 | −0.0329 | −0.0583 | 0.0602 | combinatorial effect in the majority of the cell lines and tissue types examined [7]: clear synergistic effect; combination of IMT and PARPi compared to treatment with just the PARPi alone ([8]; A2780, CTG matrix, 30 μM to 10 nM IMT (3S)-1-[(2R)-2-[4-(2-chloro-4-fluoro-phenyl)-2-oxo-chromen-7-yl]oxypropanoyl]piperidine-3-carboxylic acid + 30 μM to 40 nM of the labelled PARPi): advantage of the combination; activity at 0.04 µM ([8]; Homo sapiens, A2780, 72 hours, Olaparib 0.04 μM, IMT (3S)-1-[(2R)-2-[4-(2-chloro-4-fluoro-phenyl)-2-oxo-chromen-7-yl]oxypropanoyl]piperidine-3-carboxylic acid at the μM of c0, untreated control =100%, read-out: Measured residual activity (cellular ATP content)): 99%; activity at 0.1 µM ([8]; Homo sapiens, A2780, 72 hours, Olaparib 0.1 μM, IMT (3S)-1-[(2R)-2-[4-(2-chloro-4-fluoro-phenyl)-2-oxo-chromen-7-yl]oxypropanoyl]piperidine-3-carboxylic acid at the μM of c0, untreated control =100%, read-out: Measured residual activity (cellular ATP content)): 85%; activity at 0.4 µM ([8]; Homo sapiens, A2780, 72 hours, Olaparib 0.4 μM, IMT (3S)-1-[(2R)-2-[4-(2-chloro-4-fluoro-phenyl)-2-oxo-chromen-7-yl]oxypropanoyl]piperidine-3-carboxylic acid at the μM of c0, untreated control =100%, read-out: Measured residual activity (cellular ATP content)): 46%; activity at 1.1 µM ([8]; Homo sapiens, A2780, 72 hours, Olaparib 1.1 μM, IMT (3S)-1-[(2R)-2-[4-(2-chloro-4-fluoro-phenyl)-2-oxo-chromen-7-yl]oxypropanoyl]piperidine-3-carboxylic acid at the μM of c0, untreated control =100%, read-out: Measured residual activity (cellular ATP content)): 27%; activity at […] ([8]; Homo sapiens, A2780, 72 hours, Olaparib 3.3 μM, IMT (3S)-1-[(2R)-2-[4-(2-chloro-4-fluoro-phenyl)-2-oxo-chromen-7-yl]oxypropanoyl]piperidine-3-carboxylic acid at the μM of c0, untreated control =100%, read-out: Measured residual activity (cellular ATP content)): 14%; activity at 10 µM ([8]; Homo sapiens, A2780, 72 hours, Olaparib 10 μM, IMT (3S)-1-[(2R)-2-[4-(2-chloro-4-fluoro-phenyl)-2-oxo-chromen-7-yl]oxypropanoyl]piperidine-3-carboxylic acid at the μM of c0, untreated control =100%, read-out: Measured residual activity (cellular ATP content)): 1%; activity at 30 µM ([8]; Homo sapiens, A2780, 72 hours, Olaparib 30 μM, IMT (3S)-1-[(2R)-2-[4-(2-chloro-4-fluoro-phenyl)-2-oxo-chromen-7-yl]oxypropanoyl]piperidine-3-carboxylic acid at the μM of c0, untreated control =100%, read-out: Measured residual activity (cellular ATP content)): 0% |
| Cn1cnc2c(F)c(Nc3ccc(Br)cc3Cl)c(C(=O)NOCCO)cc21 [Selumetinib] | −0.0219 | −0.0114 |  |  |  |  |  |
| Cc1cc(C(=O)NOCCO)c(Nc2ccc(I)cc2F)n(C)c1=O [AZD8330, 2-((2-Fluoro-4-iodophenyl)amino)-N-(2-hydroxyethoxy)-1,5-dimethyl-6-oxo-1,6-dihydropyridine-3-carboxamide] | 0.0756 | −0.0326 |  |  |  |  |  |
| COc1c(OCCCN2CCOCC2)ccc2c1N=C(NC(=O)c1cnc(N)nc1)N1CCN=C21 [BAY 80-6946, 2-Amino-N-{7-methoxy-8-[3-(4-morpholinyl)propoxy]-2,3-dihydroimidazo[1,2-c]quinazolin-5-yl}-5-pyrimidinecarboxamide] | −0.0082 | 0.0015 | 0.0183 | −0.0098 | 0.0488 | 0.0155 | combinatorial effect in the majority of the cell lines and tissue types examined [7]: clear synergistic effect |
| O=C(NOC[C@H](O)CO)c1ccc(F)c(F)c1Nc1ccc(I)cc1F [PD 0325901, (R)—N-(2,3-dihydroxypropoxy)-3,4-difluoro-2-((2-fluoro-4-iodophenyl)amino)benzamide] | 0.0495 | −0.0286 |  |  |  |  |  |
| O=C(c1ccc(F)c(F)c1Nc1ccc(I)cc1F)N1CC(O)([C@@H]2CCCCN2)C1 [Cobimetinib] | 0.0204 | −0.0232 |  |  |  |  |  |
